Converted amounts (≈) assume the structure as drawn.
Legend:
Staphylococcus aureus [1] = assay: Antimicrobial activity against methicillin-resistant Staphylococcus aureus; format: functional
Staphylococcus aureus [2] = assay: Antimicrobial activity against methicillin-susceptible Staphylococcus aureus; format: functional
[3] = tested on: Staphylococcus saprophyticus; assay: Antimicrobial activity against Staphylococcus saprophyticus ATCC 15305; format: functional
[4] = tested on: Staphylococcus epidermidis; assay: Antimicrobial activity against Staphylococcus epidermidis ATCC 12228; format: functional
Pseudomonas aeruginosa [5] = assay: Antimicrobial activity against Pseudomonas aeruginosa ATCC 39324; format: functional
Micrococcus luteus = assay: Antimicrobial activity against Micrococcus luteus ATCC 10240; format: functional
Enterococcus faecalis [6] = assay: Antimicrobial activity against Enterococcus faecalis ATCC 51299; format: functional
Streptococcus agalactiae = assay: Antimicrobial activity against Streptococcus agalactiae ATCC 13813; format: functional
[7] = tested on: Staphylococcus epidermidis; assay: Antimicrobial activity against Staphylococcus epidermidis ATCC 13518; format: functional
Salmonella enterica [8] = assay: Antimicrobial activity against Salmonella Typhimurium ATCC 13311; format: functional, Salmonella enterica subsp. enterica serovar Typhimurium
Streptococcus pyogenes [9] = assay: Antimicrobial activity against Streptococcus pyogenes ATCC 19615; format: functional
[10] = tested on: Streptococcus dysgalactiae; assay: Antimicrobial activity against Streptococcus dysgalactiae ATCC 12394; format: functional
[11] = tested on: Streptococcus dysgalactiae; assay: Antimicrobial activity against Streptococcus dysgalactiae ATCC 12388; format: functional
Streptococcus pyogenes [12] = assay: Antimicrobial activity against Streptococcus pyogenes ATCC 12386; format: functional
Enterococcus faecalis [13] = assay: Antimicrobial activity against Enterococcus faecalis ATCC 51559; format: functional
Pseudomonas aeruginosa [14] = assay: Antimicrobial activity against Pseudomonas aeruginosa ATCC 19142; format: functional
Bacillus subtilis [15] = assay: Antimicrobial activity against Bacillus subtilis ATCC 6633; format: functional
Streptococcus sanguinis = assay: Antimicrobial activity against Streptococcus sanguinis ATCC 10556; format: functional
Escherichia coli [16] = assay: Antimicrobial activity against Escherichia coli ATCC 12435; format: functional
Bacillus subtilis [17] = assay: Antimicrobial activity against Bacillus subtilis ATCC 14579; format: functional
Salmonella enterica [18] = assay: Antimicrobial activity against Salmonella Typhimurium ATCC 14028; format: functional, Salmonella enterica subsp. enterica serovar Typhimurium
Escherichia coli [19] = assay: Antimicrobial activity against Escherichia coli ATCC 35333; format: functional
[20] = tested on: Staphylococcus epidermidis; assay: Antimicrobial activity against Staphylococcus epidermidis ATCC 35983; format: functional
Enterococcus faecalis [21] = assay: Antimicrobial activity against Enterococcus faecalis ATCC 29212; format: functional
Streptococcus pneumoniae = assay: Antimicrobial activity against Streptococcus pneumoniae ATCC 49150; format: functional

## Cc1[nH]c2ccccc2c1-c1nc(-c2ccc(N(C)C)cc2)c(-c2ccc(N(C)C)cc2)[nH]1
Staphylococcus aureus [1]
  MIC: 2 µg/mL (≈ 4.59 µM)
Staphylococcus aureus [2]
  MIC: 2 µg/mL (≈ 4.59 µM)

## Cc1[nH]c2ccccc2c1-c1nc(-c2ccc(Br)cc2)c(-c2ccc(Br)cc2)[nH]1
Staphylococcus aureus [1]
  MIC: 2 µg/mL (≈ 3.94 µM)
Staphylococcus aureus [2]
  MIC: 2 µg/mL (≈ 3.94 µM)

## Brc1ccc2[nH]cc(-c3nc(-c4ccccc4)c(-c4ccccc4)[nH]3)c2c1
Staphylococcus aureus [1]
  MIC: 4 µg/mL (≈ 9.65 µM)
Staphylococcus aureus [2]
  MIC: 4 µg/mL (≈ 9.65 µM)

## Fc1ccc(-c2nc(-c3c[nH]c4ccc(Br)cc34)[nH]c2-c2ccc(F)cc2)cc1
[3]
  MIC: 2 µg/mL (≈ 4.44 µM)
[4]
  MIC: 2 µg/mL (≈ 4.44 µM)
Pseudomonas aeruginosa [5]
  MIC: > 64 µg/mL
Micrococcus luteus
  MIC: 1 µg/mL (≈ 2.22 µM)
Enterococcus faecalis [6]
  MIC: 2 µg/mL (≈ 4.44 µM)
Streptococcus agalactiae
  MIC: 2 µg/mL (≈ 4.44 µM)
[7]
  MIC: 2 µg/mL (≈ 4.44 µM)
Salmonella enterica [8]
  MIC: > 64 µg/mL
Streptococcus pyogenes [9]
  MIC: 2 µg/mL (≈ 4.44 µM)
[10]
  MIC: 2 µg/mL (≈ 4.44 µM)
[11]
  MIC: 2 µg/mL (≈ 4.44 µM)
Streptococcus pyogenes [12]
  MIC: 2 µg/mL (≈ 4.44 µM)
Enterococcus faecalis [13]
  MIC: 2 µg/mL (≈ 4.44 µM)
Pseudomonas aeruginosa [14]
  MIC: > 64 µg/mL
Bacillus subtilis [15]
  MIC: 2 µg/mL (≈ 4.44 µM)
Streptococcus sanguinis
  MIC: 1 µg/mL (≈ 2.22 µM)
Escherichia coli [16]
  MIC: > 64 µg/mL
Staphylococcus aureus [1]
  MIC: 1 µg/mL (≈ 2.22 µM)
Bacillus subtilis [17]
  MIC: 2 µg/mL (≈ 4.44 µM)
Salmonella enterica [18]
  MIC: > 64 µg/mL
Staphylococcus aureus [2]
  MIC: 1 µg/mL (≈ 2.22 µM)
Escherichia coli [19]
  MIC: > 64 µg/mL
[20]
  MIC: 2 µg/mL (≈ 4.44 µM)
Enterococcus faecalis [21]
  MIC: 2 µg/mL (≈ 4.44 µM)
Streptococcus pneumoniae
  MIC: 2 µg/mL (≈ 4.44 µM)

## Cc1[nH]c2ccccc2c1-c1nc(-c2ccc(Oc3ccccc3)cc2)c(-c2ccc(Oc3ccccc3)cc2)[nH]1
Staphylococcus aureus [2]
  MIC: > 64 µg/mL

## O=[N+]([O-])c1ccc(-c2nc(-c3c[nH]c4ccc(Br)cc34)[nH]c2-c2ccccc2)cc1
Staphylococcus aureus [2]
  MIC: > 64 µg/mL

## Fc1ccc(-c2nc(-c3c[nH]c4ccc(Br)cc34)[nH]c2-c2ccccc2)cc1
Staphylococcus aureus [1]
  MIC: 2 µg/mL (≈ 4.63 µM)
Staphylococcus aureus [2]
  MIC: 2 µg/mL (≈ 4.63 µM)

## Brc1ccc2[nH]cc(-c3nc(-c4ccc(-c5ccccc5)cc4)c(-c4ccc(-c5ccccc5)cc4)[nH]3)c2c1
Staphylococcus aureus [2]
  MIC: > 64 µg/mL

## Cc1[nH]c2ccccc2c1-c1nc(-c2ccccc2)c(-c2ccccc2)[nH]1
Staphylococcus aureus [1]
  MIC: 4 µg/mL (≈ 11.4 µM)
Staphylococcus aureus [2]
  MIC: 8 µg/mL (≈ 22.9 µM)

## Cc1[nH]c2ccccc2c1-c1nc(-c2ccc(F)cc2)c(-c2ccc(F)cc2)[nH]1
Staphylococcus aureus [1]
  MIC: 4 µg/mL (≈ 10.4 µM)
Staphylococcus aureus [2]
  MIC: 4 µg/mL (≈ 10.4 µM)

## Cc1[nH]c2ccccc2c1-c1nc(-c2ccc(-c3ccccc3)cc2)c(-c2ccc(-c3ccccc3)cc2)[nH]1
Staphylococcus aureus [2]
  MIC: > 64 µg/mL

## Cc1[nH]c2ccccc2c1-c1nc(-c2ccc(Br)cc2)c(-c2ccccc2)[nH]1
Staphylococcus aureus [1]
  MIC: 4 µg/mL (≈ 9.34 µM)
Staphylococcus aureus [2]
  MIC: 4 µg/mL (≈ 9.34 µM)

## Cc1[nH]c2ccccc2c1-c1nc(-c2ccc(-c3ccccc3)cc2)c(-c2ccccc2)[nH]1
Staphylococcus aureus [1]
  MIC: 2 µg/mL (≈ 4.7 µM)
Staphylococcus aureus [2]
  MIC: 4 µg/mL (≈ 9.4 µM)

## Cc1ccc(-c2nc(-c3c(C)[nH]c4ccccc34)[nH]c2-c2ccccc2)cc1
Staphylococcus aureus [1]
  MIC: 4 µg/mL (≈ 11 µM)
Staphylococcus aureus [2]
  MIC: 4 µg/mL (≈ 11 µM)

## Cc1[nH]c2ccccc2c1-c1nc(-c2ccc([N+](=O)[O-])cc2)c(-c2ccccc2)[nH]1
Staphylococcus aureus [1]
  MIC: 8 µg/mL (≈ 20.3 µM)
Staphylococcus aureus [2]
  MIC: 8 µg/mL (≈ 20.3 µM)

## Cc1[nH]c2ccccc2c1-c1nc(-c2ccc(F)cc2)c(-c2ccccc2)[nH]1
Staphylococcus aureus [1]
  MIC: 4 µg/mL (≈ 10.9 µM)
Staphylococcus aureus [2]
  MIC: 4 µg/mL (≈ 10.9 µM)

## Clc1ccc(-c2nc(-c3c[nH]c4ccc(Br)cc34)[nH]c2-c2ccccc2)cc1
Staphylococcus aureus [1]
  MIC: 1 µg/mL (≈ 2.23 µM)
Staphylococcus aureus [2]
  MIC: 1 µg/mL (≈ 2.23 µM)

## Cc1ccc(-c2nc(-c3c[nH]c4ccc(Br)cc34)[nH]c2-c2ccccc2)cc1
Staphylococcus aureus [1]
  MIC: 2 µg/mL (≈ 4.67 µM)
Staphylococcus aureus [2]
  MIC: 2 µg/mL (≈ 4.67 µM)

## Brc1ccc2[nH]cc(-c3nc(-c4ccc(Oc5ccccc5)cc4)c(-c4ccc(Oc5ccccc5)cc4)[nH]3)c2c1
Staphylococcus aureus [2]
  MIC: > 64 µg/mL

## Cc1[nH]c2ccccc2c1-c1nc(-c2ccc(Cl)cc2)c(-c2ccc(Cl)cc2)[nH]1
Staphylococcus aureus [1]
  MIC: 4 µg/mL (≈ 9.56 µM)
Staphylococcus aureus [2]
  MIC: 4 µg/mL (≈ 9.56 µM)

## Cc1ccc(-c2nc(-c3c(C)[nH]c4ccccc34)[nH]c2-c2ccc(C)cc2)cc1
Staphylococcus aureus [1]
  MIC: 8 µg/mL (≈ 21.2 µM)
Staphylococcus aureus [2]
  MIC: 8 µg/mL (≈ 21.2 µM)

## Cc1[nH]c2ccccc2c1-c1nc(-c2ccc(Cl)cc2)c(-c2ccccc2)[nH]1
Staphylococcus aureus [1]
  MIC: 8 µg/mL (≈ 20.8 µM)
Staphylococcus aureus [2]
  MIC: 8 µg/mL (≈ 20.8 µM)

## Brc1ccc(-c2nc(-c3c[nH]c4ccc(Br)cc34)[nH]c2-c2ccccc2)cc1
Staphylococcus aureus [1]
  MIC: 2 µg/mL (≈ 4.06 µM)
Staphylococcus aureus [2]
  MIC: 2 µg/mL (≈ 4.06 µM)

## Brc1ccc2[nH]cc(-c3nc(-c4ccc(-c5ccccc5)cc4)c(-c4ccccc4)[nH]3)c2c1
Staphylococcus aureus [1]
  MIC: 4 µg/mL (≈ 8.16 µM)
Staphylococcus aureus [2]
  MIC: 4 µg/mL (≈ 8.16 µM)

## CN(C)c1ccc(-c2nc(-c3c[nH]c4ccc(Br)cc34)[nH]c2-c2ccc(N(C)C)cc2)cc1
Staphylococcus aureus [1]
  MIC: 2 µg/mL (≈ 4 µM)
Staphylococcus aureus [2]
  MIC: 2 µg/mL (≈ 4 µM)

## O=[N+]([O-])c1ccc(-c2nc(-c3c[nH]c4ccc(Br)cc34)[nH]c2-c2ccc([N+](=O)[O-])cc2)cc1
Staphylococcus aureus [2]
  MIC: > 64 µg/mL

## Brc1ccc(-c2nc(-c3c[nH]c4ccc(Br)cc34)[nH]c2-c2ccc(Br)cc2)cc1
Staphylococcus aureus [2]
  MIC: > 64 µg/mL

## Clc1ccc(-c2nc(-c3c[nH]c4ccc(Br)cc34)[nH]c2-c2ccc(Cl)cc2)cc1
Staphylococcus aureus [1]
  MIC: 2 µg/mL (≈ 4.14 µM)
Staphylococcus aureus [2]
  MIC: 2 µg/mL (≈ 4.14 µM)

## Cc1ccc(-c2nc(-c3c[nH]c4ccc(Br)cc34)[nH]c2-c2ccc(C)cc2)cc1
Staphylococcus aureus [1]
  MIC: 4 µg/mL (≈ 9.04 µM)
Staphylococcus aureus [2]
  MIC: 2 µg/mL (≈ 4.52 µM)

## Cc1[nH]c2ccccc2c1-c1nc(-c2ccc([N+](=O)[O-])cc2)c(-c2ccc([N+](=O)[O-])cc2)[nH]1
Staphylococcus aureus [2]
  MIC: > 64 µg/mL

## CC(=O)NC[C@H]1CN(c2ccc(N3CCOCC3)c(F)c2)C(=O)O1 [LINEZOLID]
Staphylococcus aureus [2]
  MIC: 1 µg/mL (≈ 2.96 µM)

## Cc1onc(-c2ccccc2)c1C(=O)N[C@@H]1C(=O)N2[C@@H]1SC(C)(C)[C@@H]2C(=O)O [OXACILLIN]
Staphylococcus aureus [1]
  MIC: > 16 µg/mL
Staphylococcus aureus [2]
  MIC: 0.5 µg/mL (≈ 1.25 µM)

## CN[C@H](CC(C)C)C(=O)N[C@H]1C(=O)N[C@@H](CC(N)=O)C(=O)N[C@H]2C(=O)N[C@H]3C(=O)N[C@H](C(=O)N[C@H](C(=O)O)c4cc(O)cc(O)c4-c4cc3ccc4O)[C@H](O)c3ccc(c(Cl)c3)Oc3cc2cc(c3O[C@@H]2O[C@H](CO)[C@@H](O)[C@H](O)[C@H]2O[C@H]2C[C@](C)(N)[C@H](O)[C@H](C)O2)Oc2ccc(cc2Cl)[C@H]1O [VANCOMYCIN]
[3]
  MIC: 2 µg/mL (≈ 1.38 µM)
Pseudomonas aeruginosa [5]
  MIC: > 64 µg/mL
Micrococcus luteus
  MIC: 0.25 µg/mL (≈ 0.173 µM)
Enterococcus faecalis [6]
  MIC: 16 µg/mL (≈ 11 µM)
Streptococcus agalactiae
  MIC: 1 µg/mL (≈ 0.69 µM)
[7]
  MIC: 0.5 µg/mL (≈ 0.345 µM)
Salmonella enterica [8]
  MIC: > 64 µg/mL
Streptococcus pyogenes [9]
  MIC: 1 µg/mL (≈ 0.69 µM)
[10]
  MIC: 1 µg/mL (≈ 0.69 µM)
[11]
  MIC: 0.5 µg/mL (≈ 0.345 µM)
Streptococcus pyogenes [12]
  MIC: 2 µg/mL (≈ 1.38 µM)
Enterococcus faecalis [13]
  MIC: > 64 µg/mL
Pseudomonas aeruginosa [14]
  MIC: > 64 µg/mL
Bacillus subtilis [15]
  MIC: 0.25 µg/mL (≈ 0.173 µM)
Streptococcus sanguinis
  MIC: 1 µg/mL (≈ 0.69 µM)
Escherichia coli [16]
  MIC: > 64 µg/mL
Bacillus subtilis [17]
  MIC: 1 µg/mL (≈ 0.69 µM)
Salmonella enterica [18]
  MIC: > 64 µg/mL
Escherichia coli [19]
  MIC: > 64 µg/mL
Streptococcus pneumoniae
  MIC: 4 µg/mL (≈ 2.76 µM)
